This note sets out measurements from ChEMBL document CHEMBL5042473 (J Med Chem, 2022).

Data set [1] deals with Mitogen-activated protein kinase 14 (Homo sapiens, UniProt Q16539). The data set can be described thus: Inhibition of human p38 MAPK alpha incubated for 1 hr by photometric method.
A short description of data set [2]: Metabolic stability in human liver microsomes assessed as parent compound remaining incubated for 120 mins. The conditions noted are these: read-out: Stability. The format is ADME, Microsome.
A short description of data set [3]: Ratio of drug concentration in RjOrl:Swiss (CD-1) mouse brain to plasma at 10mg/kg, iv administered measured after 2 hrs by LC-MS/MS analysis. The format is ADME, organism-based. The conditions noted are these: brain and plasma, read-out: BPR.
Data set [4] can be described thus: Drug uptake in RjOrl:Swiss (CD-1) mouse brain at 10 mg/kg, iv administered measured after 2 hrs by LC-MS/MS analysis. The format is ADME, organism-based. The following applies: read-out: Ct.

Sequence of Mitogen-activated protein kinase 14 (Q16539 whole entry): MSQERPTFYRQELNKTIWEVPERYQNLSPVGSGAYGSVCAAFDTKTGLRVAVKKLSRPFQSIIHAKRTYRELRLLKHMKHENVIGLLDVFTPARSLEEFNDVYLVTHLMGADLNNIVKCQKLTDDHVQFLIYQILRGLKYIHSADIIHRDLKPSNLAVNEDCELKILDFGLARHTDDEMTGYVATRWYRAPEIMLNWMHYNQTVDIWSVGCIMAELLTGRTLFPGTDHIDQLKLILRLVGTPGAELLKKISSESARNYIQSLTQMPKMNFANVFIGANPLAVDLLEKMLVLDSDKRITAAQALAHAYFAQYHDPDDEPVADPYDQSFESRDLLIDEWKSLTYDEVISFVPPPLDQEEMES

Regarding `COC(=O)[C@@H](N)CCCCNC(=O)c1ccc2c(c1)C(=O)c1ccc(Nc3ccccc3N)cc1CC2`, in data set [1], the IC50 (as a rule, the midpoint of a concentration-inhibition curve) was determined as 12 nM.
As to `CN(C)CCNC(=O)c1ccc2c(c1)C(=O)c1ccc(Nc3ccccc3N)cc1CC2`, the remaining at 2 h in data set [2] stood at 50%. This compound also showed a 50% inhibitory concentration (IC50) in data set [1] of 8.4 nM. Besides, the Kp at 2 h in data set [3] is 0.59.
With `CC(C)(C)OC(=O)N1CCN(CCNC(=O)c2ccc3c(c2)C(=O)c2ccc(Nc4ccccc4N)cc2CC3)CC1`, in data set [1], 1.9 nM corresponded to half-maximal inhibition (IC50).
As for `Nc1ccccc1Nc1ccc2c(c1)CCc1ccc(C(=O)NCC(O)CO)cc1C2=O` (configuration not stated), the IC50 in data set [1] was found to be 15 nM.
`NC(=O)CCNC(=O)c1ccc2c(c1)C(=O)c1ccc(Nc3ccc(F)cc3F)cc1CC2`: the remaining at 2 h in data set [2] worked out at 95%. Besides, the IC50 in data set [1] was 6.2 nM.
As to `O=C1c2ccc(Nc3ccc(F)cc3F)cc2CCc2ccc(C(=O)N3CCCCC3)cc21`, in data set [1], the midpoint of inhibition, the IC50, lay at 120 nM. That is a sub-micromolar value.
As for `CC(C)(C)OC(=O)N1CCN(CCNC(=O)c2ccc3c(c2)C(=O)c2ccc(Nc4ccc(F)cc4F)cc2CC3)CC1`, the midpoint of inhibition in data set [1], the IC50, lay at 2.4 nM.
In the case of `COC(=O)CC[C@H](NC(=O)c1ccc2c(c1)C(=O)c1ccc(Nc3ccccc3N)cc1CC2)C(=O)OC`, in data set [1], 17 nM corresponded to half-maximal inhibition (IC50).
`O=C(NCCc1ccc(F)cc1)c1ccc2c(c1)C(=O)c1ccc(Nc3ccc(F)cc3F)cc1CC2` showed an IC50 in data set [1] of 21 nM.
Take `COC(=O)[C@H](CCSC)NC(=O)c1ccc2c(c1)C(=O)c1ccc(Nc3ccccc3N)cc1CC2`: in data set [2], the remaining at 2 h is 0%. The IC50 in data set [1] is 13 nM.
For the compound `COC(=O)[C@@H](N)CNC(=O)c1ccc2c(c1)C(=O)c1ccc(Nc3ccc(F)cc3F)cc1CC2`, in data set [2], the remaining at 2 h is 12%. In addition, the IC50 in data set [1] is 5.4 nM.
`Nc1ccccc1Nc1ccc2c(c1)CCc1ccc(C(=O)NCCc3cnc[nH]3)cc1C2=O` registered an IC50 in data set [1] of 26 nM.
In the case of `COC(=O)CNC(=O)c1ccc2c(c1)C(=O)c1ccc(Nc3ccc(F)cc3F)cc1CC2`, the remaining at 2 h in data set [2] is 0%. The compound also displayed a half-inhibitory concentration (IC50) in data set [1] of 12 nM.
`O=C(NO)c1ccc2c(c1)C(=O)c1ccc(Nc3ccc(F)cc3F)cc1CC2`: the remaining at 2 h in data set [2] worked out at 13%. Moreover, in data set [1], the IC50 turned out to be 5.2 nM.
In data set [1], `CN(C)C(=O)c1ccc2c(c1)C(=O)c1ccc(Nc3ccc(F)cc3F)cc1CC2` returned an IC50 of 95 nM.
`NC(=O)c1ccc2c(c1)C(=O)c1ccc(Nc3ccccc3N)cc1CC2` yielded an IC50 in data set [1] of 6.1 nM.
Take `O=C(NC1(c2ccccc2)CC1)c1ccc2c(c1)C(=O)c1ccc(Nc3ccc(F)cc3F)cc1CC2`: in data set [4], the concentration at 2 h amounted to 49 ng/g. For the same compound, in data set [1], the 50% inhibitory concentration (IC50) is 2.5 nM. Also, the Kp at 2 h in data set [3] turned out to be 0.51.
`O=C(N[C@@H]1[C@@H](O)[C@H](O)[C@@H](CO)O[C@H]1O)c1ccc2c(c1)C(=O)c1ccc(Nc3ccc(F)cc3F)cc1CC2`: the concentration at 2 h in data set [4] came out at 5.9 ng/g. For the same compound, the IC50 in data set [1] is 5.2 nM. Further, the Kp at 2 h in data set [3] amounted to 0.09.
As for `O=C(O)CC[C@H](NC(=O)c1ccc2c(c1)C(=O)c1ccc(Nc3ccc(F)cc3F)cc1CC2)C(=O)O`, in data set [2], the remaining at 2 h amounted to 93%. In addition, inhibition in data set [1] was half-maximal at 8 nM (IC50).
In data set [1], `Nc1ccccc1Nc1ccc2c(c1)CCc1ccc(C(=O)N[C@@H](CCC(=O)O)C(=O)O)cc1C2=O` gave a concentration for half-maximal inhibition (IC50) of 27 nM.
For the compound `COC(=O)[C@H](C)NC(=O)c1ccc2c(c1)C(=O)c1ccc(Nc3ccc(F)cc3F)cc1CC2`, the remaining at 2 h in data set [2] turned out to be 93%. This compound had an IC50 in data set [1] of 3 nM.
Regarding `Nc1ccccc1Nc1ccc2c(c1)CCc1ccc(C(=O)NCCCC[C@H](N)C(=O)O)cc1C2=O`, in data set [1], the concentration for half-maximal inhibition (IC50) came to 17 nM.
Same read-out and setting: next, `COC(=O)[C@H](Cc1ccccc1)NC(=O)c1ccc2c(c1)C(=O)c1ccc(Nc3ccc(F)cc3F)cc1CC2`: 15 nM.
As for `N[C@@H](CCCCNC(=O)c1ccc2c(c1)C(=O)c1ccc(Nc3ccc(F)cc3F)cc1CC2)C(=O)O`, in data set [1], half-maximal inhibition (IC50) was put at 3.5 nM. The Kp at 2 h in data set [3] amounted to 0.01.
For `O=C(NCC(F)(F)F)c1ccc2c(c1)C(=O)c1ccc(Nc3ccc(F)cc3F)cc1CC2`, the midpoint of inhibition in data set [1], the IC50, lay at 3.5 nM.
`Nc1ccccc1Nc1ccc2c(c1)CCc1ccc(C(=O)NCCN3CCOCC3)cc1C2=O`: the remaining at 2 h in data set [2] is below 38%. In data set [1], 18 nM corresponded to half-maximal inhibition (IC50). In data set [3], the Kp at 2 h is 0.08.
Compound `Nc1ccccc1Nc1ccc2c(c1)CCc1ccc(C(=O)NC(CO)CO)cc1C2=O` showed an IC50 in data set [1] of 15 nM. This counts as double-digit nanomolar.
Take `Nc1ccccc1Nc1ccc2c(c1)CCc1ccc(C(=O)NCCO)cc1C2=O`: the remaining at 2 h in data set [2] came out at 99%. This compound yielded an IC50 in data set [1] of 14 nM.
Consider `O=C(NCCc1ccc(O)cc1)c1ccc2c(c1)C(=O)c1ccc(Nc3ccc(F)cc3F)cc1CC2`, for which, in data set [1], the IC50 stood at 7.8 nM.
Turning to `COC(=O)[C@@H](N)CCCCNC(=O)c1ccc2c(c1)C(=O)c1ccc(Nc3ccc(F)cc3F)cc1CC2`, in data set [1], the IC50 was 2.1 nM.
With `COC(=O)CC[C@H](NC(=O)c1ccc2c(c1)C(=O)c1ccc(Nc3ccc(F)cc3F)cc1CC2)C(=O)OC`, half-maximal inhibition in data set [1] (IC50) was put at 1.2 nM. This IC50 lies about 1.8-fold lower than the previous one.
`O=C(NCCN1CCNCC1)c1ccc2c(c1)C(=O)c1ccc(Nc3ccc(F)cc3F)cc1CC2`: the remaining at 2 h in data set [2] worked out at 93%. Also, the concentration for half-maximal inhibition (IC50) in data set [1] is 1.3 nM. In addition, in data set [3], the Kp at 2 h worked out at 0.24.
In the case of `CCCCCCCCNC(=O)c1ccc2c(c1)C(=O)c1ccc(Nc3ccc(F)cc3F)cc1CC2`, in data set [1], the IC50 is 390 nM.
As to `O=C(NCCc1c[nH]c2ccccc12)c1ccc2c(c1)C(=O)c1ccc(Nc3ccc(F)cc3F)cc1CC2`, the remaining at 2 h in data set [2] is 71%. In data set [1], this compound registered an IC50 of 28 nM.
Compound `O=C(NCCc1ccccc1)c1ccc2c(c1)C(=O)c1ccc(Nc3ccc(F)cc3F)cc1CC2` returned a 50% inhibitory concentration (IC50) in data set [1] of 21 nM. This lies in the double-digit nanomolar range.
In turn, `O=C(NCCCc1ccccc1)c1ccc2c(c1)C(=O)c1ccc(Nc3ccc(F)cc3F)cc1CC2` showed an IC50 in data set [1] of 50 nM.
Compound `O=C(NCCc1cccs1)c1ccc2c(c1)C(=O)c1ccc(Nc3ccc(F)cc3F)cc1CC2` showed an IC50 in data set [1] of 6.4 nM.
In data set [1], `Nc1ccccc1Nc1ccc2c(c1)CCc1ccc(C(=O)NCCN3CCNCC3)cc1C2=O` registered an IC50 of 18 nM.
Regarding `O=C(NCCc1c[nH]cn1)c1ccc2c(c1)C(=O)c1ccc(Nc3ccc(F)cc3F)cc1CC2`, in data set [2], the remaining at 2 h was found to be 95%. The compound further showed an IC50 in data set [1] of 5.6 nM.
For the compound `NCCNC(=O)c1ccc2c(c1)C(=O)c1ccc(Nc3ccccc3N)cc1CC2`, the midpoint of inhibition in data set [1], the IC50, lay at 5.3 nM.
`CN(CCc1ccccc1)C(=O)c1ccc2c(c1)C(=O)c1ccc(Nc3ccc(F)cc3F)cc1CC2`: the midpoint of inhibition in data set [1], the IC50, lay at 390 nM.
In turn, `COC(=O)[C@H](CCSC)NC(=O)c1ccc2c(c1)C(=O)c1ccc(Nc3ccc(F)cc3F)cc1CC2` yielded an IC50 in data set [1] of 6.9 nM.
`O=C(N[C@@H](Cc1ccccc1)C(=O)O)c1ccc2c(c1)C(=O)c1ccc(Nc3ccc(F)cc3F)cc1CC2`: the concentration at 2 h in data set [4] came out at 15 ng/g. The compound further came in with a concentration for half-maximal inhibition (IC50) in data set [1] of 36 nM. In data set [3], the Kp at 2 h was determined as 0.31.
`O=C(NCCNCCO)c1ccc2c(c1)C(=O)c1ccc(Nc3ccc(F)cc3F)cc1CC2` had an IC50 in data set [1] of 1.7 nM. Besides, in data set [3], the Kp at 2 h came to 0.17.
Regarding `N[C@@H](CNC(=O)c1ccc2c(c1)C(=O)c1ccc(Nc3ccc(F)cc3F)cc1CC2)C(=O)O`, the Kp at 2 h in data set [3] stood at 0.003.
As to `CCCCCCCCCCCCCCCCNC(=O)c1ccc2c(c1)C(=O)c1ccc(Nc3ccc(F)cc3F)cc1CC2`, in data set [1], the IC50 is above 1000 nM.
On the same count and under the same terms, to `Nc1ccccc1Nc1ccc2c(c1)CCc1ccc(C(=O)NCCc3ccccc3)cc1C2=O` belongs 20 nM.
Consider `CC(NC(=O)c1ccc2c(c1)C(=O)c1ccc(Nc3ccc(F)cc3F)cc1CC2)C1CCCCC1` (configuration not stated), for which the IC50 in data set [1] turned out to be 22 nM. The IC50 values of the last two compounds are within 1.5-fold of each other.
